Consider one molecule from patent US6004790A, “Cyclomaltodextrin glucanotransferase variants” (priority 1995, dated 1999).

Holding throughout (test): Kinetic studies of β-cyclodextrin forming activity on Paselli SA2 with and without β-cyclodextrin (product inhibition)
Holding throughout (type): biochemical

Assay [1] deals with T1, Bacillus circulans Strain 251 CGTase variant Y633A (Niallia circulans, UniProt P43379, Y660A).
T1 construct: a high extracellular production of wild-type enzyme and CGTase variants was obtained reproducibly; made in house; host or cells: Bacillus subtilis Strain DB104A (plasmid pDP66K)
T1 sequence (P43379 28-713 Y660A): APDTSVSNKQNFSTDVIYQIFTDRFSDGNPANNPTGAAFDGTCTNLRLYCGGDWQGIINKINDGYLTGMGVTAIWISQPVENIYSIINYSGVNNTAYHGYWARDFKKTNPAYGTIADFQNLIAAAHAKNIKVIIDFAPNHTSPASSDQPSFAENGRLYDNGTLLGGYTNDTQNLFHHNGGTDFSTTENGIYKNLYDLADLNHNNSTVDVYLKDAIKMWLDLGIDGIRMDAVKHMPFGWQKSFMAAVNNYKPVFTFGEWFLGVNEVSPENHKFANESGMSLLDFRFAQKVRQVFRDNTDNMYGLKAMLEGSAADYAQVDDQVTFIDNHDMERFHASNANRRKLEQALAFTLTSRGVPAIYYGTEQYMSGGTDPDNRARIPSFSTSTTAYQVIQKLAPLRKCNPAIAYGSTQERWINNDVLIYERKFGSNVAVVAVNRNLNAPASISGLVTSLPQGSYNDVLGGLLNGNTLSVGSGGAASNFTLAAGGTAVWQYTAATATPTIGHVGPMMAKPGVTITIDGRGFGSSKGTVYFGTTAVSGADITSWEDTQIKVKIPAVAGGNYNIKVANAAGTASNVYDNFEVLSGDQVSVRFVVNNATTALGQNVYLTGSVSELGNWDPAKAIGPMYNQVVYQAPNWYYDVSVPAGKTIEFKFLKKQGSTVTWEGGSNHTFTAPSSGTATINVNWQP
The protocol: (§1) β-cyclodextrin Forming Activity: β-cyclodextrin forming activity was determined using 5% Paselli™ SA2 (i.e. partially hydrolysed potato starch with an average degree of polymerization of 50, available from AVEBE, Foxhol, The Netherlands) as substrate and after incubation for 3 minutes at 50° C. 0.1-0.1 units of activity were used. The β-cyclodextrin formed was determined based on its ability to form a stable colorless inclusion complex with phenolphthalein. One unit of activity is defined as the amount of enzyme able to form 1 μmol of β-cyclodextrin per minute.
(§2) Kinetic Studies: Kinetic studies on Paselli™ SA2 (AVEBE, Foxhol, The Netherlands) were performed by determination of the β-cyclodextrin forming activity of the enzyme on Paselli™ concentrations ranging from 0 to 5%, with and without addition of 0.1 or 0.2 mM of β-cyclodextrin. In these experiments approx. 0.6 μg/ml (0.15-0.18 units) of enzyme was used.
(§3) The data collected from these kinetic and binding studies were fitted using the Hill equation, yielding Ymax and K50 values for the binding studies, and Vmax and K50 values for the kinetic studies. Ki values were calculated as follows. [formula] Results

The target in assay [2] is T2, Bacillus circulans Strain 251 CGTase (cyclomaltodextrin glucanotransferase), wild type, SEQ ID NO: 70 (Niallia circulans, UniProt P43379).
T2 construct: a high extracellular production of wild-type enzyme and CGTase variants was obtained reproducibly; made in house; host or cells: Bacillus subtilis Strain DB104A (plasmid pDP66K)
T2 sequence (P43379 28-713): as the sequence (P43379 28-713 Y660A) above, with A633Y counted along it
To be noted: inhibition by β-cyclodextrin (0.1 or 0.2 mM), substrate 0-5% Paselli SA2, 50° C., Hill equation fit. How it is done:
as §1, §2, §3

The target of assay [3] is T3, Bacillus circulans Strain 251 CGTase variant W616A/W662A (Niallia circulans, UniProt P43379, W643A/W689A).
T3 construct: a high extracellular production of wild-type enzyme and CGTase variants was obtained reproducibly; made in house; host or cells: Bacillus subtilis Strain DB104A (plasmid pDP66K)
T3 sequence (P43379 28-713 W643A/W689A): as the sequence (P43379 28-713 Y660A) above, with W616A, A633Y, W662A counted along it
How it is done:
as §1, §2, §3

For `OC[C@H]1O[C@@H]2O[C@H]3[C@H](O)[C@@H](O)[C@@H](O[C@H]4[C@H](O)[C@@H](O)[C@@H](O[C@H]5[C@H](O)[C@@H](O)[C@@H](O[C@H]6[C@H](O)[C@@H](O)[C@@H](O[C@H]7[C@H](O)[C@@H](O)[C@@H](O[C@H]8[C@H](O)[C@@H](O)[C@@H](O[C@H]1[C@H](O)[C@H]2O)O[C@@H]8CO)O[C@@H]7CO)O[C@@H]6CO)O[C@@H]5CO)O[C@@H]4CO)O[C@@H]3CO` [β-cyclodextrin], the Ki in assay [1] came out at 210 µM; in assay [2] it was 380 µM; in assay [3] it was 1110 µM.
